Measurements from patent publication US20200361895A1, “NOVEL SULFONAMIDE CARBOXAMIDE COMPOUNDS” (Inflazome Limited, priority 2017, published 2020).
Structures can show the parent of a compound that is named as a salt. Where two headings read alike, the source gives them in different places.

Columns and labels:
NLRP3 [1] = target: T1, NLRP3 (Homo sapiens, UniProt Q96P20); assay: Human whole blood IL1β release assay (LPS + nigericin, AlphaLisa IL-1β; HWB IC50); type: cell-based; set-up: Human whole blood in Li-heparin tubes was obtained from healthy donors from a volunteer donor panel; from tissue; host or cells: human whole blood from healthy donors; settings: IL-1β release
In short: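 Donor Li-heparin whole blood primed with 1 μg/ml LPS, given compound (8-point half-log series, 10 μM top; DMSO 0.1% final) for 3 h at 37 °C, then nigericin 10 μM final for 1 h. Supernatant IL-1β measured by AlphaLisa; IC50 from 4-parameter variable-slope fit.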

NLRP3 [2] = target: T1, NLRP3; assay: THP-1 cells pyroptosis assay (LPS + nigericin, resazurin readout; THP IC50); type: cell-based; set-up: Seed THP-1 cells (25,000 cells/well) containing 1.0 μg/ml LPS in 40 μl of RPMI medium; host or cells: THP-1 cells
In short: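 Human THP-1 cells, 25,000/well in serum-free RPMI with 1 μg/ml LPS, treated 3 hrs at 37° C with compound (8-point half-log, 10 μM top, 0.1% DMSO), then 5 μM nigericin 1 hr. Viability by 100 μM resazurin fluorescence after 1-2 hrs; IC50 by 4-parameter fit.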

[3] = PK protocol, intravenous administration; type: in vivo, male Sprague Dawley rats; settings: male, Sprague Dawley, plasma, rat; for Vd: read-out: Vdss
Method: Pharmacokinetic parameters were determined in male Sprague Dawley rats (Charles River, UK, 250-350 g; or Vital River Laboratory Animal Technology Co Ltd, Beijing, China, 7-9 weeks old). Animals were individually housed during the study and maintained under a 12 h light/dark cycle. Animals had free access to food and water.
For intravenous administration, compounds were formulated as a solution in water or DMSO:PBS [10:90] in 2 mL/kg dosing volume and administered via tail vein. For oral administration, compounds were formulated as a solution in DMSO:water [10:90] in 5 mL/kg dosing volume and administered orally.
Serial blood samples (about 120-300 μL) were taken from each animal at each of 8 time-points post dose (0.083, 0.25, 0.5, 1, 2, 4, 8 and 24 h) or at each of 12 time-points post dose (0.03, 0.1, 0.17, 0.25, 0.5, 1, 2, 4, 6, 8, 12 and 24 h) or pre-dose and at each of 9 time-points post dose (0.25, 0.5, 1, 2, 4, 6, 8, 12 and 24 h). Samples were held on ice for no longer than 30 minutes before centrifugation (10,000 rpm (8,385 g) for 3 minutes; or 5,696 rpm (3,000 g) for 15 minutes) for plasma generation. Plasma was frozen on dry ice prior to bioanalysis. PK parameters were generated from LC-MS/MS data using Dotmatics or Phoenix WinNonlin 6.3 software.

T1 sequence (Q96P20 whole entry): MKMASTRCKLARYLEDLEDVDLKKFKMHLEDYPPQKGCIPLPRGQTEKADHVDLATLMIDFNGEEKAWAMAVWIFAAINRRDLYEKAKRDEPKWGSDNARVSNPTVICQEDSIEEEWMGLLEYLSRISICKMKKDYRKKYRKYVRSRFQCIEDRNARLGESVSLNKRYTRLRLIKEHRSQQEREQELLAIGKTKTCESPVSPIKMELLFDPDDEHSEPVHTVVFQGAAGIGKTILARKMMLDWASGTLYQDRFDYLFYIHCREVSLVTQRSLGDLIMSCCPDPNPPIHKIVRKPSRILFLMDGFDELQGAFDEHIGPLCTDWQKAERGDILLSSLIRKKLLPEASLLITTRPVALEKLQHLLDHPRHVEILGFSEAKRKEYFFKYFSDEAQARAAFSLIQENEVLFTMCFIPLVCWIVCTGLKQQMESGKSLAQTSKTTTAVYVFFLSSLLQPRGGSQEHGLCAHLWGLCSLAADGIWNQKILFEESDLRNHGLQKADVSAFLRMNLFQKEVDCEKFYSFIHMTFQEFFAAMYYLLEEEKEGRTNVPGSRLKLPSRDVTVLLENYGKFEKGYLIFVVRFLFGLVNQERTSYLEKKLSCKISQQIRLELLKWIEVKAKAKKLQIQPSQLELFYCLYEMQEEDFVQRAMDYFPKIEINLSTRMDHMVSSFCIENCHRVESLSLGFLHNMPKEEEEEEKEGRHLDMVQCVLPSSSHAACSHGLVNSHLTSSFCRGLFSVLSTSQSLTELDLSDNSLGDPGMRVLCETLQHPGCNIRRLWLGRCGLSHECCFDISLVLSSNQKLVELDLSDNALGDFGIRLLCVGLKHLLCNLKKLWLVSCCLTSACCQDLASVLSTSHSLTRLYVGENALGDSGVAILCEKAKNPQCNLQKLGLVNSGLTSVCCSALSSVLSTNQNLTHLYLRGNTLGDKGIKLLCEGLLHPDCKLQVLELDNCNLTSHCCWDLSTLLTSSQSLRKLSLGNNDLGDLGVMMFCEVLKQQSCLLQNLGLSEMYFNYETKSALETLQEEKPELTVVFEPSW

SMILES	IC50 (NLRP3 [1]) [nM]	IC50 (NLRP3 [2]) [nM]	AUC ([3]; dose 1 mg/kg) [ng·h/mL]	clearance ([3]; dose 1 mg/kg) [mL/min/kg]	half-life ([3]; dose 1 mg/kg) [h]	Vd ([3]; dose 1 mg/kg) [L/kg]	AUC ([3]; dose 1.98 mg/kg) [ng·h/mL]	clearance ([3]; dose 1.98 mg/kg) [mL/min/kg]	half-life ([3]; dose 1.98 mg/kg) [h]	Vd ([3]; dose 1.98 mg/kg) [L/kg]
CC(C)c1cc(F)cc(-c2cccnc2)c1NC(=O)NS(=O)(=O)c1ccn(C(C)C)n1 [Example 1, N-((4-Fluoro-2-iso-propyl-6-(pyridin-3-yl)phenyl)carbamoyl)-1-iso-propyl-1H-pyrazole-3-sulfonamide]	≤ 500	≤ 500	341	49.1	3.3	4.49	–	–	–	–
CC(C)c1cc(F)cc(-c2ccncc2)c1NC(=O)NS(=O)(=O)c1ccn(C(C)C)n1 [Example 10, N-((4-Fluoro-2-iso-propyl-6-(pyridin-4-yl)phenyl)carbamoyl)-1-iso-propyl-1H-pyrazole-3-sulfonamide, partial ammonium salt]	≤ 500	≤ 500	–	–	–	–	806	40.9	3.8	7.14
CC(C)c1cc(F)cc(-c2ccnc(O)c2)c1NC(=O)NS(=O)(=O)c1ccn(C(C)C)n1 [Example 25, N-((4-Fluoro-2-(2-hydroxypyridin-4-yl)-6-iso-propylphenyl)carbamoyl)-1-iso-propyl-1H-pyrazole-3-sulfonamide]	≤ 500	≤ 500	412	41.9	0.4	0.41	–	–	–	–
COc1cc(-c2cc(F)cc(C(C)C)c2NC(=O)NS(=O)(=O)c2cncc(N(C)C)n2)ccn1 [Example 103, 6-(Dimethylamino)-N-((4-fluoro-2-isopropyl-6-(2-methoxypyridin-4-yl)phenyl)carbamoyl)pyrazine-2-sulfonamide]	–	≤ 500	346	48.1	2.2	1.77	–	–	–	–
COc1cc(-c2ccc3c(c2NC(=O)NS(=O)(=O)c2cncc(N(C)C)n2)CCC3)ccn1 [Example 104, 6-(Dimethylamino)-N-((5-(2-methoxypyridin-4-yl)-2,3-dihydro-1H-inden-4-yl)carbamoyl)pyrazine-2-sulfonamide]	–	≤ 500	841	19.8	1.2	1.04	–	–	–	–
CN1CCC(N(C)S(=O)(=O)NC(=O)Nc2c(-c3ccnc(C#N)c3)ccc3c2CCC3)C1 (centres unmarked) [Example 317, 3-(N-Methyl-N-(1-methylpyrrolidin-3-yl)sulfamoyl)-1-(5-(2-cyanopyridin-4-yl)-2,3-dihydro-1H-inden-4-yl)urea]	≤ 500	≤ 500	–	–	–	–	–	–	–	–
CN1CCC2CN(S(=O)(=O)NC(=O)Nc3c(-c4ccnc(C#N)c4)ccc4c3CCC4)CC21 (centres unmarked) [Example 318, N-((5-(2-Cyanopyridin-4-yl)-2,3-dihydro-1H-inden-4-yl)carbamoyl)-1-methylhexahydropyrrolo[3,4-b]pyrrole-5(1H)-sulfonamide]	≤ 500	≤ 1000	–	–	–	–	–	–	–	–
COc1cc(-c2ccc3c(c2NC(=O)NS(=O)(=O)N2CC4CCN(C)C4C2)CCC3)ccn1 (centres unmarked) [Example 320, N-((5-(2-Methoxypyridin-4-yl)-2,3-dihydro-1H-inden-4-yl)carbamoyl)-1-methylhexahydropyrrolo[3,4-b]pyrrole-5(1H)-sulfonamide, potassium salt]	≤ 500	≤ 500	–	–	–	–	–	–	–	–
CN1CCCC1CN(C)S(=O)(=O)NC(=O)Nc1c(-c2ccnc(C#N)c2)ccc2c1CCC2 (centres unmarked) [Example 321, 3-(N-Methyl-N-((1-methylpyrrolidin-2-yl)methyl)sulfamoyl)-1-(5-(2-cyanopyridin-4-yl)-2,3-dihydro-1H-inden-4-yl)urea]	≤ 500	≤ 1000	–	–	–	–	–	–	–	–
CC(C)(O)c1coc(S(=O)(=O)NC(=O)Nc2c3c(nn2-c2ccncc2)CCC3)c1 [Example 323, 4-(2-Hydroxypropan-2-yl)-N-((2-(pyridin-4-yl)-2,4,5,6-tetrahydrocyclopenta[c]pyrazol-3-yl)carbamoyl)furan-2-sulfonamide]	≤ 500	≤ 5000	–	–	–	–	–	–	–	–
